Measurements as given in patent US11345675B2, “Compound, anti-allergy drug, and mediator release inhibitor” (LAIMU CORPORATION, priority 2018, dated 2022).
“Also recorded” adds a separate entry of the source.

Tests used:
[1] = test system: rat basophilic leukemia cells RBL-2H3; experiment: Degranulation inhibiting test (β-hexosaminidase release induced by antigen-antibody reaction); assay type: cell-based; conditions: RBL-2H3 cells, anti-DNP-IgE/DNP-HSA stimulation; compounds 1, 2 and 6-sPalm-AA-2G at 40, 60 or 80 μM, oxatomide 75 μM; FIG. 1
Experimental: In this Example, the compound 1 and the compound 2 were evaluated in terms of the effect thereof to inhibit degranulation to be induced by stimulation of an antigen-antibody reaction. Degranulation was quantified based on, as an index, β-hexosaminidase release from rat basophilic leukemia cells RBL-2H3. Specifically, β-hexosaminidase is an enzyme released through degranulation of mast cells or basocytes, and through enzymatic reaction with a substrate, p-nitrophenyl-2-acetamide-2-deoxy-β-glucopyranoside, this increases the absorbance at 405 nm of the reaction liquid. Here, the degranulation inhibiting effect was evaluated from the absorbance change as an index of β-hexosaminidase release amount (degree of degranulation).
The compound 1 and the compound 2 were individually dissolved in a 0.25% dimethyl sulfoxide-containing MT buffer at a concentration of 40 μM, 60 μM or 80 μM to prepare solutions to be evaluation samples. On the other hand, as comparative samples, 6-sPalm-AA-2G was dissolved in a 0.25% dimethyl sulfoxide-containing MT buffer at a concentration of 40 μM, 60 μM or 80 μM to prepare solutions, and oxatomide was dissolved in a 0.25% dimethyl sulfoxide-containing MT buffer at a concentration of 75 μM to prepare a solution. […]

[2] = test system: PCA (passive cutaneous anaphylaxis) reaction; experiment: PCA reaction inhibition test (Evans blue dye leakage in auricle); assay type: in vivo; conditions: applied to auricle of ICR male mice, 90 nmol/auricle (6-sPalm-AA-2G 150 nmol/auricle), 3.5 hours before DNP-HSA-Evans blue i.v.; FIG. 2
Experimental: In this Example, the anti-allergy activity of the compound 1 and the compound 2 was evaluated based on, as an index, the inhibiting effect thereof against PCA (passive cutaneous anaphylaxis) reaction. PCA reaction is a series of cell reaction of an allergy reaction including immobilization of mast cells via an Fc part of immunoglobulin, antigen-antibody reaction on the cells, release of inflammatory mediator from the mast cells through the reaction and promotion of vascular permeability. Here, after an anti-DNP-IgE antibody solution has been subcutaneously administered to a test body, a solution containing a 2,4-dinitrophenyl group (DNP)-labeled human serum albumin (HSA) and a dye (Evans blue) (DNP-HSA-Evans blue solution) is intravenously administered, and the vascular permeability increase according to the antigen-antibody reaction is quantified by the absorbance increase owing to dye leakage from the blood vessel to the tissue to thereby evaluate the PCA reaction inhibiting effect. […]
An aqueous 1 N potassium hydroxide solution (0.5 mL) was added to the thus-cut auricle, and shaken at 37° C. overnight. After shaking, a mixed solution (3.25 mL) of aqueous 0.34 M phosphoric acid solution/acetone=13/5 (v/v) was added, and centrifuged by 700×g at 4° C. for 20 minutes, and the absorbance at 620 nm of the supernatant was measured. […]

| SMILES | β-hexosaminidase release inhibition ratio (degranulation inhibition ratio) [1] | dye leakage (relative absorbance at 620 nm, control = 100) [2] |
| --- | --- | --- |
| CCCCCCCCCCCCCCCC(=O)OC[C@H](O)[C@H]1OC(=O)C(OC)=C1O [compound 1] | greatly higher than the degranulation inhibition ratio of the system added with 6-sPalm-AA-2G, and surpasses the degranulation inhibition ratio of the system added with oxatomide | lower than the dye leakage in the system with 6-sPalm-AA-2G |
| CCCCCCCCCCCCCCCC(=O)NC[C@H](O)[C@H]1OC(=O)C(OC)=C1O [compound 2] | greatly higher than the degranulation inhibition ratio of the system added with 6-sPalm-AA-2G, and surpasses the degranulation inhibition ratio of the system added with oxatomide; also recorded: tends to have a higher degranulation inhibiting effect than the compound 1 | lower than the dye leakage in the system with 6-sPalm-AA-2G; also recorded: suppressed more than that in the system where oxatomide had been applied; also recorded: tends to have a higher anti-allergy activity than the compound 1 |
